Measurements published in BindingDB's records for doi:10.1074/jbc.M809633200 (United States Army Medical Research Institute of Infectious …, 2009).
pIC50: −log10 of the molar value.

Target: T1, Receptor-type tyrosine-protein phosphatase C (Homo sapiens, UniProt P08575)
T1 sequence (P08575 whole entry): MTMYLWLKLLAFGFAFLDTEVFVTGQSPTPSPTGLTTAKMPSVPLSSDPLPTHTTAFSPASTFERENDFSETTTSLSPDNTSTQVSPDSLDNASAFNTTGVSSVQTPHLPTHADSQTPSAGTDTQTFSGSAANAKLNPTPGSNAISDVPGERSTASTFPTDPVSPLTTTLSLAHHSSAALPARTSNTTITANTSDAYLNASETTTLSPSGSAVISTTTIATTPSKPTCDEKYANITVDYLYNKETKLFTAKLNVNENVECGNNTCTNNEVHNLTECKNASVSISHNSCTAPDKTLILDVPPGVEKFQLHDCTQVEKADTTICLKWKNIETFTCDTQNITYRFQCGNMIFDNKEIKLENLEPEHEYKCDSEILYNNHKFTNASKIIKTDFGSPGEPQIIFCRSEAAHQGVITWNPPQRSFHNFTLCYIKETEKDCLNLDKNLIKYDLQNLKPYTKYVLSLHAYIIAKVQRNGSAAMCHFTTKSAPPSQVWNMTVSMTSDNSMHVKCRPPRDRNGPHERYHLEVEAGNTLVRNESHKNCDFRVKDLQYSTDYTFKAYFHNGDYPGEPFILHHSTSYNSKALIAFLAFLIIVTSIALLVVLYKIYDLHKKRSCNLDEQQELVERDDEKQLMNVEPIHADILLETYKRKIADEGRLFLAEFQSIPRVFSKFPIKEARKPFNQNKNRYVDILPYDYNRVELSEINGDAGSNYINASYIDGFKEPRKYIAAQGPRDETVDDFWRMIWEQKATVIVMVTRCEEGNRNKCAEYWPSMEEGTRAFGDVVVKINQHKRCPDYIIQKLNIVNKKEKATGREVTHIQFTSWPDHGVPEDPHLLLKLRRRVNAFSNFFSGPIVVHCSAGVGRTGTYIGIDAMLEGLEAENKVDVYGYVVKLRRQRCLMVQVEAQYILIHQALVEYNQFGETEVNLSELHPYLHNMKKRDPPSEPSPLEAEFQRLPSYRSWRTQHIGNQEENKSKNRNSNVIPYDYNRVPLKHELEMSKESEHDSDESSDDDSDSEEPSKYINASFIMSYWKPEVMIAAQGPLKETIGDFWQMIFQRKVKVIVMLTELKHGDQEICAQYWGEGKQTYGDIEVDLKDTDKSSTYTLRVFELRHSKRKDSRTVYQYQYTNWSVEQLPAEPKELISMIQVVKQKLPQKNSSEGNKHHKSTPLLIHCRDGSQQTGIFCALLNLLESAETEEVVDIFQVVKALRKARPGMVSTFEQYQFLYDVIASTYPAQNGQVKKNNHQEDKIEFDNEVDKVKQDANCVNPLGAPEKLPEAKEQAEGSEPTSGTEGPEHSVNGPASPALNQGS
Assay: Phosphatase Activity Assay
From the text: Protein phosphatases were purchased from Upstate Biotechnology (Lake Placid, NY).

| SMILES | pIC50 |
| --- | --- |
| O=C1C(=O)c2ccccc2-c2ccccc21 | 6.52 |
| O=C1C(=O)c2cccc([N+](=O)[O-])c2-c2ccccc21 [4-Nitro-phenanthrene-9,10 dione] | 5.22 |
| CC(C)(C)C(=O)Nc1ccc2c(c1)C(=O)C(=O)c1ccccc1-2 [N-(9,10-Dioxo-9,10-dihydro-phenanthrene-2-yl)-2,2-dimethyl-propionamide] | 6.40 |
